The values that follow are results of earlier work, collected in patent US20070141140A1, “Semi-solid formulations for immediate release intended for the oral administration of drugs” (PHARMACIA ITALISA S.P.A., priority 2003, published 2007).

A value given as a limit tells only on which side of the number the result lay.

The conditions of the data set: for weight concentration in the semi-solid matrix above which dissolution velocity drops significantly: polyethylene glycol or Gelucire 44/14 matrix.

For the compound `CN1C(=O)C(O)N=C(c2ccccc2)c2cc(Cl)ccc21` (stereo not drawn) [temazepam, Temazepam], the “weight concentration in the semi-solid matrix above which dissolution velocity drops significantly” value was over 15%. In the case of `Nc1nc(N)c2nc(-c3ccccc3)c(N)nc2n1` [Triamterene], the “weight concentration in the semi-solid matrix above which dissolution velocity drops significantly” value was “exceeding 5%”. The active ingredient released entry (PEG 1500 matrix, 10% by weight Triamterene, 2 or 5% polysorbate 80 (Tween 80), in an hour) was “at least 80%”.
